We go through 98 compounds from ChEMBL document CHEMBL3507680, “University of Dundee, Gates Library screen for HepG2 cell viability”.

A short description of the data set: Human HepG2 cell viability assay in 384 well format. It counts as toxicity, cell-based. Details: dose 125 nL, time 70.5 hour; cytotoxicity at 70.5 h: concentration not given beside the values. Particulars: HepG2 cells, read-out: Inhibition.
On to `CCN(Cc1ccccc1)c1ncnc2c(C)nn(CC)c12`, for which the cytotoxicity at 70.5 h was -4.47%. For `O=C(CCc1nc(-c2cccnc2)no1)NCC1CCN(C2CC2)C1` (stereo not drawn) the value was -17.6%; for `N#Cc1cccc(NC(=O)C2CCCN2c2nccs2)c1` (stereo not drawn), -2.24%.

Turning to `Cn1cc(CN2CCC(c3cc(COc4cccc(Cl)c4)[nH]n3)C2)cn1` (stereo not drawn), the cytotoxicity at 70.5 h was -0.141%. `O=C(NCc1ccnc(O)c1)NCC1CCCC1`: the cytotoxicity at 70.5 h was -1.59%.

Consider `Cc1cc(-c2nn3c(C(C)C)nnc3s2)on1`, for which the cytotoxicity at 70.5 h was -10.1%. As for `COc1ccc(C(=O)NCCN(C)C)c(I)c1`, the cytotoxicity at 70.5 h amounted to 2.46%. For `Cc1cc(-c2nn(C)c(Cl)c2CN2CCN(C)C(C(=O)O)C2)no1` (stereo not drawn) the value was -5.8%; for `O=C1COc2ccc(S(=O)(=O)NCc3ccccc3)c3c2N1CCC3`, 4.09%. Turning to `COc1ccc(-n2cnnc2SCC(=O)N(C)C(C)C)cn1`, the cytotoxicity at 70.5 h was -6.69%. For `Cc1nccn1CCC1CCCCN1C(=O)c1ccc(N(C)C)cc1` (stereo not drawn), the cytotoxicity at 70.5 h is -3.37%. For `Cc1nc(NC(C)C)nc2c1CN(Cc1cccs1)CC2`, the cytotoxicity at 70.5 h worked out at 22.9%. Take `Cc1ccc(N2CC3(COCCN(Cc4nccs4)C3)OCC2=O)s1` (stereo not drawn): the cytotoxicity at 70.5 h is -10.7%.

In the case of `CN(CCO)C[C@@H]1CN(C(=O)c2c(F)cccc2Cl)C[C@@H]1CO`, the cytotoxicity at 70.5 h is -8.11%. Take `O=C(c1cnccn1)N1CCCC2(COCCN(CC3CC3)C2)C1` (stereo not drawn): the cytotoxicity at 70.5 h was -20.3%. As for `Cn1cc(CN2CCC3(CC2)CN(c2cccnc2)C(=O)CO3)cn1`, the cytotoxicity at 70.5 h is -5.12%. For `CC1CCN(CCNC(=O)C2CCN(S(N)(=O)=O)CC2)CC1` the value was -3.07%; for `CC(=O)N(C)Cc1ccccc1NCc1c(C)cccc1C`, -3.43%; for `Cc1ccc(C2(O)CCN(C(=O)c3ccc(S(N)(=O)=O)cc3)CC2)nc1`, -12.2%. Take `COc1ccc(C(=O)N2CC(=O)N(Cc3cccs3)CC(O)C2)cc1` (stereo not drawn): the cytotoxicity at 70.5 h is -2.23%. As to `O=C1CC(c2ccncc2)C2(CCN(CC3CC3)CC2)N1` (stereo not drawn), the cytotoxicity at 70.5 h was 14.8%. For `Cn1ccnc1CN(CCCO)C1CCCc2ccccc21` (stereo not drawn) the value was 7.41%. Under `O=C(NCCc1ccncc1)[C@H]1CC[C@@H]2[C@@H](CCN2C2CCC2)O1` stands -7.73%; under `Cc1cnn(CC2CCCN2Cc2nc3ccccc3c(=O)[nH]2)c1` (stereo not drawn), -7.22%; under `Cc1noc(C)c1CN1C[C@@H](C(=O)O)[C@H](c2ccccc2)C1`, -5.34%. `CC(=O)c1ccc(C(=O)Nc2ccnc(N(C)C)n2)cc1`: the cytotoxicity at 70.5 h came out at 6.64%. Take `CCc1nc(Cn2c(=O)c3c(C(F)(F)F)cc(C)nc3n2C)no1`: the cytotoxicity at 70.5 h is 0.468%. Regarding `COCCn1c2c(ccc1=O)CC(NC(=O)c1cscn1)CC2` (stereo not drawn), the cytotoxicity at 70.5 h is -4.76%. With `CN(C)S(=O)(=O)c1ccc(CN2CCCC2c2ccsc2)o1` (stereo not drawn), the cytotoxicity at 70.5 h was -7.08%. In the case of `CC(c1ccon1)N(C)S(=O)(=O)NCc1ccccc1` (stereo not drawn), the cytotoxicity at 70.5 h is -2.95%. Take `CCC(=O)NCC(c1ccc(SC)cc1)N1CCc2sccc2C1` (stereo not drawn): the cytotoxicity at 70.5 h was -8.32%. Take `Cc1cc(C(=O)N(C)Cc2cnn(C)c2)c(NC(=O)C(C)(C)C)s1`: the cytotoxicity at 70.5 h is -12.1%. Consider `NC(=O)C1CCN(c2ncc(-c3cnccn3)c([C@H]3CCCO3)n2)CC1`, for which the cytotoxicity at 70.5 h is -11.5%. Take `CC(C)n1ccnc1Cn1ccc2ncccc2c1=O`: the cytotoxicity at 70.5 h is -0.693%. For `CC(C)(C(=O)N1CCC(CS(N)(=O)=O)CC1)c1ccccc1F`, the cytotoxicity at 70.5 h was 1.82%. As for `CCc1nc2n(n1)CC(NCc1nc3ccccc3nc1C)CC2` (stereo not drawn), the cytotoxicity at 70.5 h stood at 1.64%.

On to `CCc1n[nH]c(C2CN(CC(=O)NCCc3ccsc3)CCO2)n1` (stereo not drawn), for which the cytotoxicity at 70.5 h is -3.93%. Regarding `O=C(CSc1ccc(F)cc1)NS(=O)(=O)c1ccc2c(c1)OCCO2`, the cytotoxicity at 70.5 h came to 6.32%.

On to `CC(C)C1CN(C(=O)c2cc(F)cc3[nH]cnc23)CCS1` (stereo not drawn), for which the cytotoxicity at 70.5 h was -2.35%.

For `COCC1CCCCN1Cc1nc(-c2ccoc2)oc1C` (stereo not drawn), the cytotoxicity at 70.5 h was -1.54%.

As for `COc1ccc(CNC(=O)NC2CCN(CC3CCCC3)CC2)cn1`, the cytotoxicity at 70.5 h was -9.34%. For `CCc1nnc2n1CCN(C(C(=O)NC1CC1)c1ccccc1)C2` (stereo not drawn) the value was -7.08%; for `O=C(COc1ccc(F)cc1F)N1CCOCC(O)(CN2CCCC2)C1` (stereo not drawn), -2.46%. Regarding `O=C(c1ccsc1)N1CCc2c(CNc3nccs3)n[nH]c2C1`, the cytotoxicity at 70.5 h was -2.81%. For the compound `CC(C)CS(=O)(=O)CC(=O)NC1CCCCNC1=O` (stereo not drawn), the cytotoxicity at 70.5 h was -7.58%.

Take `CN(c1ccc(Cl)c(C(=O)NCCCN2CCOCC2)c1)S(C)(=O)=O`: the cytotoxicity at 70.5 h was determined as 3.59%. As to `Cn1cc2ncn(CCC3CCN(Cc4ccccc4)C3)c(=O)c2n1` (stereo not drawn), the cytotoxicity at 70.5 h was -7%. With `COCC(O)CNC(=O)c1coc(COc2cccc(F)c2)n1` (stereo not drawn), the cytotoxicity at 70.5 h is -4.43%. As for `CCc1nc(C2CCCN(C(=O)c3ccc(O)nc3)C2)no1` (stereo not drawn), the cytotoxicity at 70.5 h was found to be 3.29%. For `CCOCCC(=O)N1CCCC(c2ncc[nH]2)C1` (stereo not drawn) the value was -0.67%. `COCCCN(C)[C@@H]1c2ccccc2C2(CCNCC2)[C@H]1O`: the cytotoxicity at 70.5 h is -9.86%.

As to `COc1cnc(CSc2nnc(C)s2)cc1OCC(=O)NC(C)(C)C`, the cytotoxicity at 70.5 h was -7.68%. As for `CCn1ccnc1CNc1nccc(-c2c(C)nn(C)c2C)n1`, the cytotoxicity at 70.5 h is -15.1%. Turning to `COCCNC(=O)[C@H]1C[C@@H]2CCN(c3ccccc3)C[C@H]2O1`, the cytotoxicity at 70.5 h is -9.93%.

Turning to `O=C(Nc1ccccc1)[C@H]1C[C@@H]2CN(C(=O)Nc3ccccc3)C[C@H]1O2`, the cytotoxicity at 70.5 h was -27.2%.

`Cc1ccc(-c2cc(C)nc(C3CCCN3S(C)(=O)=O)n2)cc1` (stereo not drawn): the cytotoxicity at 70.5 h was -8.04%.

For the compound `O=C(Cc1cccc(F)c1)N1CCc2ncnc(NC3CCC3)c2CC1`, the cytotoxicity at 70.5 h is 2.52%. Turning to `COc1ccccc1C1(C(=O)N2CCN(CC(C)O)CC2)CC1` (stereo not drawn), the cytotoxicity at 70.5 h was -0.267%.

On to `Cc1c(C(=O)N2CCOCC2)nnn1-c1ccc2ncccc2c1`, for which the cytotoxicity at 70.5 h is -6.04%. On to `CCOCC1CN(C(=O)c2cscn2)Cc2nnn(CC3CC3)c21` (stereo not drawn), for which the cytotoxicity at 70.5 h is -6.01%.

As to `Cc1nn(C)cc1CN1CCc2nc(-c3cccnc3)nc(O)c2C1`, the cytotoxicity at 70.5 h is -3.92%. Take `CC(=O)N1[C@H](CN(C)C)C[C@@H]2CN(c3ncc(F)cn3)CC[C@@H]21`: the cytotoxicity at 70.5 h was -6.27%. As for `CC(C)N[C@@H]1CO[C@H](CNC(=O)c2cccs2)[C@H]1O`, the cytotoxicity at 70.5 h came out at 1.83%. Take `CC(C)CN1C[C@@H]2CN(C(=O)c3cccn3C)C[C@@H]2C1=O`: the cytotoxicity at 70.5 h was -7.2%. As to `O=C(NCc1ccc(Cl)cc1)[C@@H]1Cc2[nH]cnc2CN1CC1CC1`, the cytotoxicity at 70.5 h was -6.64%. In the case of `O=C(NCCc1noc(C2CCCO2)n1)c1cn2ccsc2n1` (stereo not drawn), the cytotoxicity at 70.5 h was -4.56%. On to `CCC1COC2(CCN(C(=O)c3ccco3)CC2)C1` (stereo not drawn), for which the cytotoxicity at 70.5 h is -9.86%. As to `CC(C)(O)CN1CCN(C(=O)c2cccc(CC#N)c2)CC1`, the cytotoxicity at 70.5 h came out at 1.57%. As to `CN(Cc1cnn(C)c1)C(=O)C1COc2ccccc2C1` (stereo not drawn), the cytotoxicity at 70.5 h was -5.03%. Under `CSc1sc(NC(=O)Cc2c(C)nc(C)[nH]c2=O)nc1C` stands 3.66%; under `Cc1cc(NC(=O)CN(CC2CCOC2)C2CC2)no1` (stereo not drawn), 0.647%; under `CC(=O)NCC1CCN(C(=O)NCc2ccc3c(c2)OCCO3)CC1`, -16.3%. For the compound `CN(C)CCN1CCC2(CCCN(C(=O)C3CCC3)C2)CC1`, the cytotoxicity at 70.5 h was -1.03%.

Take `CCC(Nc1ccc(Oc2ccccc2OC)cc1)C(N)=O` (stereo not drawn): the cytotoxicity at 70.5 h was -4.77%. With `Cc1cc(NC(=O)CN2CCCC2Cn2nc(C)nc2C)on1` (stereo not drawn), the cytotoxicity at 70.5 h is -6.45%.

Take `CN(C)S(=O)(=O)N1CCCC(c2cccc(Cc3ccccc3F)n2)C1` (stereo not drawn): the cytotoxicity at 70.5 h is 11.4%. In the case of `Cc1nn(C)c(Oc2ccc(Cl)cc2)c1CN1CCOC(CN)C1` (stereo not drawn), the cytotoxicity at 70.5 h is -2.25%. In the case of `CCn1nc(C)c2ncnc(NCCCN3CCOCC3)c21`, the cytotoxicity at 70.5 h was found to be 6.44%. On to `COc1ccc(CC(=O)N(C)Cc2nnc3ccccn23)cc1`, for which the cytotoxicity at 70.5 h is -17.4%. With `CN(C)c1cc(C2CCCN2C(=O)c2ccc(=O)n(C)c2)ccn1` (stereo not drawn), the cytotoxicity at 70.5 h was -7.99%. For `CCNC(=O)[C@@H]1C[C@@H](NC(=O)c2cccnc2O)CN1Cc1ccsc1`, the cytotoxicity at 70.5 h was -11.2%. As to `Cn1nc(CNC(=O)C2COc3ccccc3O2)cc1C1CC1` (stereo not drawn), the cytotoxicity at 70.5 h turned out to be 6.17%. Under `Cc1cc(CN2C[C@H](N3CCOCC3)[C@@H]3OCCC[C@@H]32)oc1C` stands -7.89%; under `COCCn1cc(NC(=O)NC(C)Cc2c(F)cccc2F)cn1` (stereo not drawn), 12.3%. In the case of `CS(=O)(=O)N1CCC2(CC1)CC(Oc1ccccn1)CO2` (stereo not drawn), the cytotoxicity at 70.5 h is -3.34%.

As for `O=C1CCc2cc(-c3csc(CCN4CCCC4=O)n3)ccc2N1`, the cytotoxicity at 70.5 h is -14.6%. For `CS(=O)(=O)N1CCOCC2(CN(Cc3nccs3)CCO2)C1` (stereo not drawn) the value was 15.5%. Regarding `CCCOC(=O)N1CCCC2(CCN(Cc3cccc(C#N)c3)C2)C1` (stereo not drawn), the cytotoxicity at 70.5 h is -6.05%. Turning to `Cc1nn(C)c(C)c1C1CCCN1CC(=O)NCc1ccco1` (stereo not drawn), the cytotoxicity at 70.5 h worked out at 7.36%. As to `COc1ccc(C2=Nn3c(CN)nnc3-c3ccccc3C2)cc1`, the cytotoxicity at 70.5 h is -18.7%. On to `COc1ccc(OC2CCN(C(=O)c3ccc(C(C)=O)s3)CC2)cc1`, for which the cytotoxicity at 70.5 h is -6.92%. Regarding `O=C(Cc1ccc(F)cc1)NCCNCC1CNc2ccnn2C1` (stereo not drawn), the cytotoxicity at 70.5 h came out at 16.6%. With `O=C(NCc1ccco1)N1CCOC(c2ccccc2Cl)C1` (stereo not drawn), the cytotoxicity at 70.5 h was -15.6%. Turning to `Cc1ccc(O)c(CN(CCCn2ccnc2)Cc2ccc(C)s2)c1`, the cytotoxicity at 70.5 h was found to be 0.701%.

Turning to `CCC[C@@H]1CN(Cc2cnc3c(S(C)(=O)=O)cnn3c2)C[C@H]1N(C)C`, the cytotoxicity at 70.5 h is -7.08%. Under `COc1ccc(CNc2nc(C3CC3)nc3c(C)nn(C)c23)cc1` stands -0.926%; under `Cc1nc(C)c(C)c(N2C[C@@H](CN3CCCN(C)CC3)[C@@H](CO)C2)n1`, -1.83%.

On to `CC1CN(C)c2ccccc2N(C(=O)c2c[nH]c(C(C)C)n2)C1` (stereo not drawn), for which the cytotoxicity at 70.5 h is 31.3%.
